This data set addresses ATP-binding cassette sub-family C member 2 (Homo sapiens, UniProt Q92887). The data set can be described thus: TP_TRANSPORTER: uptake in membrane vesicle from MRP2-expressing MDCKII cells. The class given is functional, cell membranes. The settings on record: dog, mdck-ii.

Each structure is given as a SMILES string.

ATP-binding cassette sub-family C member 2, sequence (Q92887 whole entry): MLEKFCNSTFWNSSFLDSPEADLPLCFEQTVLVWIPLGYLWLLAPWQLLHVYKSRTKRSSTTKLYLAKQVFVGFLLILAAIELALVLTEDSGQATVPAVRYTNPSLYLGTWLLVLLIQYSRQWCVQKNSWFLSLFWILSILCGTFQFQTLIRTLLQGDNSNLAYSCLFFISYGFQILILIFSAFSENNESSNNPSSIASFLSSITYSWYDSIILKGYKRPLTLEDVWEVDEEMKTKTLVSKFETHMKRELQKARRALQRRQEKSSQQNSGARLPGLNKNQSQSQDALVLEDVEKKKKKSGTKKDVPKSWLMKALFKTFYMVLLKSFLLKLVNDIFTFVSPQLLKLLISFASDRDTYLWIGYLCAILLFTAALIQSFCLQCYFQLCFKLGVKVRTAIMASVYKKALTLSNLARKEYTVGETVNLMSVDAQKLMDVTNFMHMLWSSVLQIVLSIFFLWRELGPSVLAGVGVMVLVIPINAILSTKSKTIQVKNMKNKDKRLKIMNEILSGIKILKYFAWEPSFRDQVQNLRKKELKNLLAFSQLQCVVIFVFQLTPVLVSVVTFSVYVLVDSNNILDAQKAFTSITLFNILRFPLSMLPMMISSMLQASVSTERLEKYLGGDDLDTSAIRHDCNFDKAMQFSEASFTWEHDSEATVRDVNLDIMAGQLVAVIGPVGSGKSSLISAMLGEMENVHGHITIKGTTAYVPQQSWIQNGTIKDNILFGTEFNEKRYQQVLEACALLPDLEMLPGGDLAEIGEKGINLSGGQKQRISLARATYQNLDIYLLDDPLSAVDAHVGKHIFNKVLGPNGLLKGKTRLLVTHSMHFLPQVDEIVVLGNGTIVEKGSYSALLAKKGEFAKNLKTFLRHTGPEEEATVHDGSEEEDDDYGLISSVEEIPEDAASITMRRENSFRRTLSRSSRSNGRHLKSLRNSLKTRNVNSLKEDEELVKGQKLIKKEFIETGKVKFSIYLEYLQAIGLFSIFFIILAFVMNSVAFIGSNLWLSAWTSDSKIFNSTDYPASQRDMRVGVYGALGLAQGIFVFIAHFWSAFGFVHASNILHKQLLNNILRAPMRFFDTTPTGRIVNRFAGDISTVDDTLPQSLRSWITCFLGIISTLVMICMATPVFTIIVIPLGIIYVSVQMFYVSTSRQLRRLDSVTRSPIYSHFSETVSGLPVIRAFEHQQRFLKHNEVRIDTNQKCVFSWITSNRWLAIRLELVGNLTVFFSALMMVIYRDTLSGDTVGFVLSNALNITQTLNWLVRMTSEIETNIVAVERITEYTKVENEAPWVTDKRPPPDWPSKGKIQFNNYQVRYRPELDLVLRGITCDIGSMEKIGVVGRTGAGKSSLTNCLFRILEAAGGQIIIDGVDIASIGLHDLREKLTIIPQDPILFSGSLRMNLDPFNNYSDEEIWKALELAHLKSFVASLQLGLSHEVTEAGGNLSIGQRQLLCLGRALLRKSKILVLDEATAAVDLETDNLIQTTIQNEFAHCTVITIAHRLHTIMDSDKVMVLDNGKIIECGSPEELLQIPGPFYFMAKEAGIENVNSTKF

In the case of `O=C(O[C@@H]1Cc2c(O)cc(O)cc2O[C@@H]1c1ccc(O)c(O)c1)c1cc(O)c(O)c(O)c1` [EPICATECHIN GALLATE], the Activity result was “substrate []”.

The record behind these values is ChEMBL document CHEMBL2073900, “Cellular uptake and efflux of the tea flavonoid (-)epicatechin-3-gallate in the human intestinal cell line Caco-2” (J Pharmacol Exp Ther, 2003).
